According to US11744819B2, “Antibiotic cannabinoid-terpene formulations” (priority 2019, dated 2023):
Converted amounts (≈) assume the structure as drawn.

How the values were obtained:
E. faecium VRE 55A6 = assay: microbe, parasite or virus in culture; assay type: cell-based, Enterococcus faecium; details: for MIC Alone / MIC In combination / Max. fold change in MIC: E. faecium VRE 55A6; for MIC Alone / MIC: compound alone in checkerboard; for MIC: Enterococcus faecium, VRE, read-out: MIC Alone, E. faecium VRE 55A6
Excerpt: In therapeutic applications, synergy between active ingredients occurs when an observed combined therapeutic effect is greater than the sum of therapeutic effects of individual active ingredients, or a new therapeutic effect is produced that the active ingredients could not produce alone. […] In this context, the enhancement of therapeutic effect may take the form of increased efficacy or potency and/or decreased adverse effects. The synergistic effect may be mediated in whole or in part by the pharmacokinetics and/or pharmacodynamics of the active ingredients in a subject, so that the amount and proportion of the ingredients in the formulation may be synergistic in vivo. This in vivo synergy may be effected with a formulation that includes the active ingredients in amounts and proportions that are also synergistic in in vitro assays of efficacy. As used herein, the term “synergistically effective amounts” accordingly refers to amounts that are synergistic in vivo and/or in vitro. A numeric quantification of synergy is often expressed as a fractional inhibitory concentration index (FICI), which represents the sum of the fractional inhibitory concentrations (FICs) of each drug tested, where the FIC is determined for each drug by dividing the minimum inhibitory concentration (MIC, the lowest concentration of the drug which prevents visible growth of the bacterium in a standard in vitro assay-standard colorometric assay based on resazurin) of each drug when used in combination by the MIC of each drug when used alone. In very general terms, a FICI lower or higher than 1 indicates positively correlated activity (at least additive or potentiation) or an absence of positive interactions, respectively. More definitively, synergy of two compounds may be conservatively defined as a FICI of ::::0.5 (see Odds, 2003; with additivity or potentiation corresponding to a FICI of >0.5 to ::::0.75; no interaction (indifference) corresponding to a FICI of >1 to ::::4; and antagonism corresponding to a FICI of >>4). […] (Berenbaum, 1978; Yu et al., 1980). To estimate the optimal concentrations in triple combinations, the optimal concentrations of trans-caryophyllene and cannabinoid were utilized in combination with a series of daptomycin dilutions.
(§1) Pre-cultures of bacteria growing in their corresponding liquid media (defined below) were diluted to an 00600 of 0.0025 and 100 μl was added to 100 μl of medium containing serial 2-fold dilutions of cannabinoid (cannabinoid stocks, in methanol or acetonitrile for acidic forms, were diluted in growth medium) in 96-well plates. Plates were then incubated for 20-24 h at 37° C., and growth was recorded as 00600 in a Thermo Scientific™ Varioskan™ Flash Multimode Reader.
(§2) FICI values was determined in a 96 well checkerboard format using the MIC assay for cannabinoids (compound A), terpenes (compound B), and daptomycin (compound C) alone and in combinations. Terpene stocks were prepared in DMSO and diluted in the growth medium. The fractional inhibitory concentration for each compound was calculated as follows: FICA=(MIC of compound A in the presence of compound B)/(MIC of compound A alone). Similarly, the FICs for compounds Band C were calculated. The FICI was calculated as FICA plus FICs plus FICc.

[1] = tested on: Staphylococcus epidermidis ATCC 14990; assay: MIC determination; assay type: cell-based; details: Staphylococcus epidermidis, ATCC14990
[2] = tested on: Staphylococcus aureus MRSA; assay: microbe, parasite or virus in culture; assay type: cell-based
E. faecium 3303 = assay: microbe, parasite or virus in culture; assay type: cell-based, Enterococcus faecium; details: for Max. fold change in MIC: decrease
Excerpt: In therapeutic applications, synergy between active ingredients occurs when an observed combined therapeutic effect is greater than the sum of therapeutic effects of individual active ingredients, or a new therapeutic effect is produced that the active ingredients could not produce alone. […] In this context, the enhancement of therapeutic effect may take the form of increased efficacy or potency and/or decreased adverse effects. The synergistic effect may be mediated in whole or in part by the pharmacokinetics and/or pharmacodynamics of the active ingredients in a subject, so that the amount and proportion of the ingredients in the formulation may be synergistic in vivo. This in vivo synergy may be effected with a formulation that includes the active ingredients in amounts and proportions that are also synergistic in in vitro assays of efficacy. As used herein, the term “synergistically effective amounts” accordingly refers to amounts that are synergistic in vivo and/or in vitro. A numeric quantification of synergy is often expressed as a fractional inhibitory concentration index (FICI), which represents the sum of the fractional inhibitory concentrations (FICs) of each drug tested, where the FIC is determined for each drug by dividing the minimum inhibitory concentration (MIC, the lowest concentration of the drug which prevents visible growth of the bacterium in a standard in vitro assay-standard colorometric assay based on resazurin) of each drug when used in combination by the MIC of each drug when used alone. In very general terms, a FICI lower or higher than 1 indicates positively correlated activity (at least additive or potentiation) or an absence of positive interactions, respectively. More definitively, synergy of two compounds may be conservatively defined as a FICI of ::::0.5 (see Odds, 2003; with additivity or potentiation corresponding to a FICI of >0.5 to ::::0.75; no interaction (indifference) corresponding to a FICI of >1 to ::::4; and antagonism corresponding to a FICI of >>4). Synergy of three compounds has been defined as a FICI of ::::1.0. (Berenbaum, 1978; Yu et al., 1980). To estimate the optimal concentrations in triple combinations, the optimal concentrations of trans-caryophyllene and cannabinoid were utilized in combination with a series of daptomycin dilutions.
as §1
Method for Tables 4-7. Interaction of Cannabinoids CBC, CBD and CBG with Terpenes and Daptomycin:
as §2

[3] = tested on: E. faecium clinical isolate 69C6 (vancomycin resistant); assay: microbe, parasite or virus in culture; details: Enterococcus faecium
[4] = tested on: Mycobacterium abscessus ATCC 19977; assay: MIC determination (resazurin); assay type: cell-based; details: Mycobacteroides abscessus, ATCC19977
[5] = tested on: Enterococcus faecium 33D3; assay: microbe, parasite or virus in culture
[6] = tested on: E. faecium clinical isolate 55A6 (vancomycin and daptomycin resistant); assay: microbe, parasite or virus in culture; details: Enterococcus faecium
[7] = pairwise, with trans-caryophyllene
[8] = triple, with daptomycin and trans-caryophyllene
[9] = E. faecium 3303, pairwise, with daptomycin
[10] = E. faecium 3303, pairwise, with trans-caryophyllene
[11] = E. faecium 3303, triple, with daptomycin and trans-caryophyllene
[12] = 33D3, Enterococcus faecium 33D3 (Table 1)
[13] = 33D3, clinical enterococcal strain 3303

In the case of `CCCCCc1cc(O)c2c(c1)OC(C)(CCC=C(C)C)C=C2` (centres unmarked) [CBC, cannabichromene], the “MIC Alone” value (E. faecium VRE 55A6) is reported as 1 µg/mL, the “MIC In combination” value (E. faecium VRE 55A6; pairwise, with daptomycin) is reported as 0.25 µg/mL and the “Max. fold change in MIC” value (E. faecium VRE 55A6; pairwise, with daptomycin) is reported as 8 fold. For the same molecule, the “MIC In combination” value (E. faecium VRE 55A6; [7]) was 0.5 µg/mL, the “Max. fold change in MIC” value (E. faecium VRE 55A6; [7]) was 2 fold and the “MIC In combination” value (E. faecium VRE 55A6; [8]) was 0.25 µg/mL. For the same molecule, the “Max. fold change in MIC” value (E. faecium VRE 55A6; [8]) was 8 fold, the MIC (E. faecium VRE 55A6) was 2 µg/mL and the MIC [1] was 4 µg/mL (≈ 12.7 µM). The MIC [2] was 4 µg/mL (≈ 12.7 µM), the “MIC Alone” value (E. faecium 3303; E. faecium 3303, compound alone in checkerboard) was 2 µg/mL and the “MIC In combination” value (E. faecium 3303; [9]) was 0.5 µg/mL. For the same molecule, the “Max. fold change in MIC” value (E. faecium 3303; [9]) was 4 l fold, the “MIC In combination” value (E. faecium 3303; [10]) was 0.125 µg/mL and the “Max. fold change in MIC” value (E. faecium 3303; [10]) was 16 l fold. For the same molecule, the “MIC In combination” value (E. faecium 3303; [11]) was 0.25 µg/mL, the “Max. fold change in MIC” value (E. faecium 3303; [11]) was 8 l fold and the MIC (E. faecium 3303; Enterococcus faecium, 3303, read-out: MIC Alone, E. faecium 3303, compound alone in checkerboard) was 1 µg/mL. For the same molecule, the MIC [3] was 1 µg/mL (≈ 3.18 µM), the MIC [4] was 4 µg/mL (≈ 12.7 µM) and the MIC [5, 12] was 1 to 2 µg/mL (≈ 3.18 to 6.36 µM). It also gave an MIC [5, 13] of 1 µg/mL (≈ 3.18 µM) and an MIC [6] of 1 µg/mL (≈ 3.18 µM).
`CCCCCc1cc(O)c(C/C=C(\C)CCC=C(C)C)c(O)c1` [CBG, cannabigerol] was tested, and the “MIC Alone” value (E. faecium VRE 55A6) was 2 µg/mL, the “MIC In combination” value (E. faecium VRE 55A6; pairwise, with daptomycin) was 2 µg/mL and the “Max. fold change in MIC” value (E. faecium VRE 55A6; pairwise, with daptomycin) was 2 fold. For the same molecule, the “MIC In combination” value (E. faecium VRE 55A6; [7]) was 2 µg/mL, the “Max. fold change in MIC” value (E. faecium VRE 55A6; [7]) was “none” and the “MIC In combination” value (E. faecium VRE 55A6; [8]) was 0.5 µg/mL. The “Max. fold change in MIC” value (E. faecium VRE 55A6; [8]) was 4 fold, the MIC (E. faecium VRE 55A6) was 4 µg/mL and the MIC [1] was 1 to 2 µg/mL (≈ 3.16 to 6.32 µM). For the same molecule, the MIC [2] was 1 µg/mL (≈ 3.16 µM), the “MIC In combination” value (E. faecium 3303; [9]) was 0.125 µg/mL and the “Max. fold change in MIC” value (E. faecium 3303; [9]) was 32″′ fold. The “MIC In combination” value (E. faecium 3303; [10]) was 0.125 µg/mL, the “Max. fold change in MIC” value (E. faecium 3303; [10]) was 16″′ fold and the “MIC In combination” value (E. faecium 3303; [11]) was 0.25 µg/mL. The “Max. fold change in MIC” value (E. faecium 3303; [11]) was 4 fold, the MIC [3] was 1 µg/mL (≈ 3.16 µM) and the MIC [4] was 2 µg/mL (≈ 6.32 µM). For the same molecule, the MIC [5, 12] was 1 to 2 µg/mL (≈ 3.16 to 6.32 µM), the MIC [5, 13] was 1 µg/mL (≈ 3.16 µM) and the MIC [6] was 1 µg/mL (≈ 3.16 µM).
